The results in this text go back to the supplement of paper PMC5412046.

Counter-ions that a name gives are not always drawn.

For assay [1], the system named is SB.mhdgc-1. The experiment in a line: viability at highest tested concentration (MAXR) relative to DMSO; higher = less cytotoxic. Particulars: SB.mhdgc-1 (hereditary c.1380delA CDH1 gastric cancer). The procedure, abridged:
(§1)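 Viability values are normalised to DMSO and given either at the highest concentration or as trapezoidal area under the curve. The assay used 500 hereditary or sporadic patient-derived gastric cancer cells in 5 μL medium per 1536 well, dosed by pintool with 23 nL of compound in DMSO at 11 threefold-diluted concentrations. CellTiter-Glo was added 48 h later for 30 min at room temperature, followed by luminescence reading on a ViewLux.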

For assay [2], the system named is SB.msgc-1. The description is as above. The following applies: SB.msgc-1 (sporadic gastric cancer). The procedure, abridged:
as §1

For assay [3], the system named is SB.mhdgc-1. The experiment in a line: area under the dose-response curve of % viability (trapezoidal, 11 doses) (% viability x log10 concentration); higher = less cytotoxic. Particulars: SB.mhdgc-1 (hereditary c.1380delA CDH1 gastric cancer). The gist of the method:
as §1

For assay [4], the system named is SB.msgc-1. The assay is described as above. The following applies: SB.msgc-1 (sporadic gastric cancer). The procedure, abridged: as §1

For the compound `COC(=O)C[C@](O)(CCCC(C)(C)O)C(=O)O[C@@H]1C(OC)=CC23CCCN2CCc2cc4c(cc2[C@H]13)OCO4` (some centres undefined) [Omacetaxine mepesuccinate] (top concentration 46.0829 µM), the figures for the viability in assay [1] and in assay [2] were 97.7% and 64%, respectively. The “area under the dose-response curve” value in assay [3] was determined as 567; in assay [4] it was 409.

Take `COCCNCCCn1c(C(=O)CF)c(-c2ccc(C)cc2)c2c(N)ncnc21` [FMK-MEA] (top concentration 46.0829 µM): the viability (as a rule, a read-out of living cells in per cent, often relative to untreated cells) in assay [1] turned out to be 96.4%; in assay [2] it was 74.9%. The “area under the dose-response curve” value in assay [3] was 552; in assay [4] it was 548.

Regarding `CC[C@H]1OC(=O)[C@H](C)[C@@H](O[C@H]2C[C@@](C)(OC)[C@@H](O)[C@H](C)O2)[C@H](C)[C@@H](O[C@@H]2O[C@H](C)C[C@H](N(C)C)[C@H]2O)[C@](C)(O)C[C@@H](C)CN(C)[C@H](C)[C@@H](O)[C@]1(C)O` [Azithromycin (AZ)] (top concentration 46.0829 µM), the viability in assay [1] came out at 41.2%; in assay [2] it was 102%. Further, the “area under the dose-response curve” value in assay [3] turned out to be 499; in assay [4], 551.

Take `COC1=CC=C(C=C1)C/2=C(OC3O[C@@H](C)[C@H](O)[C@@H](O)[C@H]3O)/C(=O)C4=C(O2)C(=C(OC5O[C@H](CO)[C@@H](O)[C@H](O)[C@H]5O)C=C4O)CC=C(C)C` (some centres undefined) [Icariin] (top concentration 46.0829 µM): the viability in assay [1] was 13.3%; in assay [2], 31.4%. Further, the “area under the dose-response curve” value was determined as 475 in assay [3] and 497 in assay [4].

For the compound `C[C@H](Cc1ccc(O)c(O)c1)[C@@H](C)Cc1ccc(O)c(O)c1` [Masoprocol] (top concentration 46.0829 µM), the viability amounted to 97.7% in assay [1] and 72.6% in assay [2]. The “area under the dose-response curve” value in assay [3] turned out to be 567; in assay [4], 526.

For the compound `C[C@@H]1C[C@H]2[C@@H]3\C=C(C)/C4=C/C5=C(C[C@]4(C)[C@H]3[C@@H](O)C[C@]2(C)[C@@]1(O)C(=O)COC(C)=O)C=N[N]5C6=CC=CC=C6` [Cortivazol] (top concentration 46.0829 µM), the viability in assay [1] turned out to be 8.44%; in assay [2], 8.26%. Besides, the “area under the dose-response curve” value in assay [3] amounted to 412; in assay [4] it was 396.

`CC(C)C[C@H](NC(=O)[C@H](Cc1ccccc1)NC(=O)c1cnccn1)B(O)O` [Bortezomib] (top concentration 46.0829 µM): the figures for the viability in assay [1] and in assay [2] were 3.74% and 3.19%, respectively. Besides, the results for the “area under the dose-response curve” value in assay [3] and in assay [4] were 157 and 137, respectively.

For the compound `C=C[C@H]1CN2CCC1C[C@H]2[C@H](O)c1ccnc2ccc(OC)cc12` (some centres undefined) [Quinine] (top concentration 46.0829 µM), the viability came out at 88.1% in assay [1] and 83.7% in assay [2]. Further, the “area under the dose-response curve” value worked out at 520 in assay [3] and 404 in assay [4].

Take `Cc1ccc(NC(=O)Nc2cc(C(F)(F)F)ccc2F)cc1Nc1ccc2c(c1)NC(=O)/C2=C\c1ccc[nH]1` [GNF-5837] (top concentration 46.0829 µM): the viability in assay [1] came out at 1.48%; in assay [2], 6.76%. In addition, the “area under the dose-response curve” value in assay [3] is 430; in assay [4] it was 455.

In the case of `CCNC(=O)CCC/C=C\C[C@@H]1[C@@H](/C=C/C(O)CCc2ccccc2)[C@@H](O)C[C@@H]1O` (some centres undefined) [Bimatoprost] (top concentration 46.0829 µM), the viability worked out at 62.2% in assay [1] and 95.7% in assay [2]. Also, the figures for the “area under the dose-response curve” value in assay [3] and in assay [4] were 559 and 552, respectively.

For `CCC(C)N1\N=C/N(C1=O)C2=CC=C(C=C2)N3CCN(CC3)C4=CC=C(OC[C@H]5CO[C@@](C[N]6C=NC=N6)(O5)C7=CC=C(Cl)C=C7Cl)C=C4` (some centres undefined) [Itraconazole] (top concentration 46.0829 µM), the viability in assay [1] amounted to 62.2%; in assay [2], 57.9%. In addition, the “area under the dose-response curve” value came to 472 in assay [3] and 464 in assay [4].

`COC1=CC2=NC=CC(=C2C=C1)OC3=CN=C(NC(=O)C/4=C(C)/N(CC(C)(C)O)N(C4=O)C5=CC=CC=C5)C=C3` [AMG-458] (top concentration 46.0829 µM): the viability in assay [1] was 77.2%; in assay [2] it was 51.3%. Also, the “area under the dose-response curve” value in assay [3] amounted to 455; in assay [4], 427.

Take `OC(COC1=C2C(=O)\C=C(/OC2=CC=C1)C([O-])=O)COC3=C4C(=O)\C=C(/OC4=CC=C3)C([O-])=O` [Sodium cromoglycate] (top concentration 46.0829 µM): the viability was found to be 73.9% in assay [1] and 108% in assay [2]. Moreover, the entries for the “area under the dose-response curve” value in assay [3] and in assay [4] were 415 and 468, respectively.

With `Cc1ccc(/C=N/NC(=O)c2ccccc2Oc2ccccc2)o1` (top concentration 46.0829 µM), the viability in assay [1] was 76.1%; in assay [2], 71.4%. Also, the “area under the dose-response curve” value came out at 509 in assay [3] and 518 in assay [4].

Turning to `Cc1cnc(Nc2ccc(OCCN3CCCC3)cc2)nc1Nc1cccc([S+](=O)([O-])NC(C)(C)C)c1` (top concentration 46.0829 µM), the figures for the viability in assay [1] and in assay [2] were 10.5% and 106%, respectively. The “area under the dose-response curve” value in assay [3] was 385; in assay [4], 436.

With `CN(C)C(=O)COC(=O)Cc1ccc(OC(=O)c2ccc(NC(=N)N)cc2)cc1` [Camostat mesylate] (top concentration 46.0829 µM), the figures for the viability in assay [1] and in assay [2] were 44.7% and 101%, respectively. The “area under the dose-response curve” value in assay [3] is 389; in assay [4] it was 507.
